Results on twelve compounds are retold here after PubChem BioAssay (NCI).

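Five concentrations, 48 hours, 96-well plates. Abbreviation: GI50, concentration required for 50% inhibition of growth. Definition used: TGI = concentration required for complete inhibition of growth.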

Some test systems named below: A549 NSCLC; CAKI-1 renal; COLO 205 colon; M14 melanoma; MCF7 breast; SK-OV-3 ovarian; U251 CNS; UACC-62 melanoma.
Common to all, as to assay: NCI-60 cell line screen, 48 h

As to `O=C(Nc1cccc(-n2cc(-c3ccncc3)c(-c3ccc(Cl)c(O)c3)n2)c1)Nc1cc(C(F)(F)F)cc(C(F)(F)F)c1`, the GI50 in the experiment on A549 NSCLC is 313 nM; with CAKI-1 renal, 867 nM; in the experiment on COLO 205 colon, 896 nM; in the experiment with M14 melanoma, 692 nM; with MCF7 breast it was 666 nM; in the experiment on SK-OV-3 ovarian it was 1180 nM. Further, the values for the GI50 in the experiment with U251 CNS and in the experiment on UACC-62 melanoma were 484 nM and 766 nM, respectively. Moreover, the TGI in the experiment on A549 NSCLC amounted to 1.38 µM; with CAKI-1 renal, 2.88 µM; with COLO 205 colon, 1.71 µM; with M14 melanoma it was 1.9 µM; with MCF7 breast, 4.62 µM; in the experiment with SK-OV-3 ovarian, 2.83 µM. Also, the TGI in the experiment on U251 CNS turned out to be 1.15 µM; with UACC-62 melanoma, 1.96 µM.

Turning to `Cc1cc([N+](=O)[O-])c(NS(=O)(=O)c2cccc(C(=O)O)c2)cc1-c1cccnc1`, the GI50 with A549 NSCLC, with COLO 205 colon, in the experiment with M14 melanoma, with MCF7 breast, with SK-OV-3 ovarian and in the experiment on U251 CNS was over 100000 nM each time. For the same compound, the GI50 in the experiment on UACC-62 melanoma is over 100000 nM. The TGI with A549 NSCLC, in the experiment with COLO 205 colon, in the experiment on M14 melanoma, in the experiment with MCF7 breast, in the experiment on SK-OV-3 ovarian and in the experiment on U251 CNS was over 100 µM in each case. The same compound displayed a TGI in the experiment with UACC-62 melanoma of over 100 µM.

For the compound `C=C(C(N)=O)c1ccc([N+](=O)[O-])o1`, the TGI amounted to 40.3 µM in the experiment on A549 NSCLC; 7.27 µM with CAKI-1 renal; 12.9 µM in the experiment on COLO 205 colon; 8.65 µM in the experiment with M14 melanoma; 19.8 µM with MCF7 breast; 87.9 µM with SK-OV-3 ovarian. The TGI with U251 CNS is 34.6 µM; in the experiment on UACC-62 melanoma, 21.4 µM.

Regarding `NCCCC[C@@H]1NC(=O)[C@H]2CCCN2C(=O)[C@H](Cc2ccccc2)CNC(=O)[C@H](Cc2ccccc2)NC1=O`, the GI50 with A549 NSCLC, in the experiment with CAKI-1 renal, in the experiment with COLO 205 colon, with M14 melanoma, in the experiment with MCF7 breast and in the experiment with SK-OV-3 ovarian was over 37500 nM each time. For the same compound, the GI50 in the experiment with U251 CNS and in the experiment on UACC-62 melanoma was over 37500 nM in each case. In addition, the TGI with A549 NSCLC, in the experiment on CAKI-1 renal, in the experiment on COLO 205 colon, in the experiment on M14 melanoma, with MCF7 breast and in the experiment on SK-OV-3 ovarian was over 37.5 µM in each case. For the same compound, the TGI in the experiment on U251 CNS and in the experiment with UACC-62 melanoma was over 37.5 µM each time.

As to `CCCCOC(=O)N1CCN(/[N+]([O-])=N/Oc2ccc([N+](=O)[O-])cc2[N+](=O)[O-])CC1`, the GI50 in the experiment on A549 NSCLC was 21100 nM; in the experiment with CAKI-1 renal, 3160 nM; in the experiment with COLO 205 colon it was 2630 nM; in the experiment on MCF7 breast, 3310 nM; in the experiment on U251 CNS, 5850 nM; in the experiment with UACC-62 melanoma, 13600 nM. The TGI is 64.2 µM with A549 NSCLC; 6.77 µM with CAKI-1 renal; 5.99 µM in the experiment with COLO 205 colon; 8.57 µM in the experiment on MCF7 breast; 21.8 µM with U251 CNS; 26.8 µM with UACC-62 melanoma.

Turning to `COc1ccc(CCN2CC=Cn3c2nc2ccccc2c3=O)cc1`, the GI50 in the experiment on A549 NSCLC is 38 nM; in the experiment on CAKI-1 renal, 57.6 nM; with COLO 205 colon, 26.7 nM; in the experiment on MCF7 breast, 30.7 nM; in the experiment with SK-OV-3 ovarian, 55.9 nM; with U251 CNS it was 36.8 nM. The GI50 with UACC-62 melanoma is 232 nM. The TGI with A549 NSCLC is over 49.1 µM; with CAKI-1 renal, over 100 µM; in the experiment on COLO 205 colon, 0.0847 µM; in the experiment with MCF7 breast it was over 43 µM; in the experiment on SK-OV-3 ovarian it was over 89.7 µM; in the experiment with U251 CNS, over 100 µM. The compound further displayed a TGI in the experiment with UACC-62 melanoma of over 100 µM.

On to `CSC1=C(N)C(=O)c2[nH]cc(CO)c2C1=N`, for which the GI50 with A549 NSCLC was 136 nM; in the experiment on COLO 205 colon it was 75.5 nM; in the experiment on M14 melanoma, 139 nM; in the experiment with MCF7 breast, 160 nM; in the experiment on SK-OV-3 ovarian it was 623 nM; in the experiment with U251 CNS, 181 nM. In the experiment on UACC-62 melanoma, the GI50 was 159 nM. The TGI in the experiment on A549 NSCLC amounted to 0.331 µM; in the experiment with COLO 205 colon, 0.222 µM; with M14 melanoma, 0.285 µM; in the experiment with MCF7 breast, 0.407 µM; in the experiment on SK-OV-3 ovarian it was 1.85 µM; in the experiment on U251 CNS it was 0.347 µM. The same compound gave a TGI in the experiment on UACC-62 melanoma of 0.314 µM.

Turning to `CCOC(=O)CCC(NC(=O)OCc1ccccc1)C(=O)NC(CCC(=O)OCC)C(=O)NC(CCC(=O)OCC)C(=O)NC(CCC(=O)OCC)C(=O)NC(CCC(=O)OCC)C(=O)NC(CCC(=O)OCC)C(=O)NC(CCC(=O)OCC)C(=O)OCC` (centres undefined), the TGI in the experiment with A549 NSCLC, with CAKI-1 renal, in the experiment on M14 melanoma, in the experiment with MCF7 breast, in the experiment with U251 CNS and in the experiment with UACC-62 melanoma was over 100 µM each time.

Consider `COc1cc(OC)c(C/C=C/c2ccccc2)cc1O`, for which the TGI in the experiment with A549 NSCLC came to 46.6 µM; in the experiment with CAKI-1 renal, 40.9 µM; in the experiment with COLO 205 colon, 50.7 µM; in the experiment with M14 melanoma it was 38 µM; with U251 CNS, 30.4 µM; in the experiment on UACC-62 melanoma it was 29 µM.

Turning to `CC(C)CCCC(C)[C@H]1CCC2[C@@H]3CCC4Cc5nc6c(nc5C[C@]4(C)C3CC[C@@]21C)CC1CC[C@@H]2C(CC[C@@]3(C)C2CC[C@@H]3C(C)CCCC(C)C)[C@@]1(C)C6` (some centres undefined), the TGI with A549 NSCLC, in the experiment on COLO 205 colon, with M14 melanoma, in the experiment with MCF7 breast, with SK-OV-3 ovarian and in the experiment on U251 CNS was over 100 µM throughout. The compound further came in with a TGI in the experiment with UACC-62 melanoma of over 100 µM.

As for `COc1cc(C(=O)c2c(-c3ccccc3)oc3c(OC)cccc23)cc(OC)c1OC`, the GI50 in the experiment on A549 NSCLC is 73.6 nM; in the experiment on CAKI-1 renal it was 47.4 nM; in the experiment with COLO 205 colon it was 123 nM; in the experiment with MCF7 breast, 153 nM; with SK-OV-3 ovarian, 1570 nM; in the experiment with U251 CNS, 51.4 nM. In addition, the GI50 with UACC-62 melanoma is 52.2 nM. The TGI was over 100 µM with A549 NSCLC; 21.9 µM in the experiment on CAKI-1 renal; 0.485 µM in the experiment with COLO 205 colon; over 100 µM in the experiment with MCF7 breast; over 100 µM in the experiment on SK-OV-3 ovarian; over 100 µM with U251 CNS. This compound gave a TGI in the experiment on UACC-62 melanoma of over 96.5 µM.

For the compound `COC(C(=O)NN)c1ccccc1` (centres undefined), the TGI with A549 NSCLC, in the experiment with CAKI-1 renal, in the experiment on M14 melanoma, with MCF7 breast, with SK-OV-3 ovarian and with U251 CNS was over 100 µM each time. For the same compound, the TGI in the experiment with UACC-62 melanoma was over 100 µM.
